For this test, the target named is HCV NS3 serine protease (Hepatitis C virus genotype 1a, UniProt P27958). The experiment in a line: biochemical. The settings on record: Ki from rate vs. [inhibitor] plots, Morrison tight binding competitive inhibition fit; with or without NS4A; 30 C, pH 7.8. As for the experimental part:
Peptides EDVVabuCSMSY (Abu designates—aminobutyric acid), […], […] and EDVV AbuC-p-nitroanilide was purchased from AnaSpec Inc. (San Jose, Calif.).
Cleavage reactions were quenched by the addition of an equal volume of a mixture of 10% TFA: acetonitrile (1:1) and activity was assessed on a reversed phase HPLC column (Rainin C18 Microsorb-MV, […], 4.6×250 mm; 0-50% acetonitrile, 0.1% TFA@3.33% min) using a Hewlett Packard 1050 instrument with auto-injection and diode array detection at 210 nm and 280 nm (where appropriate). Peptide elution fragments were collected and identified by mass spectrometry and N-terminal sequence analysis. Fragment identity and concentration was further verified by authentic, synthesized products. Initial rates of cleavage were determined at <20% substrate conversion and catalytic parameters were determined assuming Michaelis-Menten kinetics using the MultiFit program (Day Computing, Cambridge, Mass.).
Spectrophotometric assays were run in a 96-well microtiter plate at 30 C, using a SpectraMax 250 reader (Molecular Devices, Sunnyvale, Calif.) with kinetic capability. Cleavage of EDVV AbuC-p-nitroanilide (5A-pNA) substrate was performed with or without NS4A in the same buffer used for HPLC assays at 30 C, and pNA release was monitored at 405 nm. The extinction coefficient of p-nitroaniline is independent of pH at values of 5.5. and above [Tuppy, H., et al., Hoppe-Seyler's Z. Physiol. Chem., 329, pp. 278-288 (1962)]; Raybuck and Luong, unpublished observations).
Kinetic constants for the rapid equilibrium ordered bisubstrate reaction were determined from rate vs. [4A], [EDVV Abuc-pNa]data by non-linear least squares fitting to equation 1 [Morrison, J. F. Biochim. Biophys. Acta., 185, pp. 269-286 (1969)] as described in the text. Kii and Kis valkues for peptidyl inhibitors were determined from rate vs. [inhibitor], [substrate] data and fitting to the equation for mixed inhibition:
rate=Vmax[S]/{Km(1+[I]/Kis0+[S](1+[I]/Kii)}
The commercial program KinetAsyst (State College, Pa.) was used for both procedures. Ki values were calculated from rate vs. [inhibitor] plots by a nonlinear least squares fit of the data to the equation of Morrison for tight binding competitive inhibition [Morrison, J. F. Biochim. Biophys. Acta., 185, pp. 269-286 (1969)]. The KineTic program (BioKin Ltd) was used for this procedure.
Ki values are express in μM. Category “A” indicates <1 μM inhibition; category “B” indicates 1-100 μM inhibition; category “C” indicates >100 μM.

Our source for the Ki values is US20110112114A1, “INHIBITORS OF SERINE PROTEASES, PARTICULARLY HEPATITIS C VIRUS NS3 PROTEASE” (priority 1999, published 2011).

The structures appear in SMILES notation.

Sequence of HCV NS3 serine protease (P27958 1027-1208): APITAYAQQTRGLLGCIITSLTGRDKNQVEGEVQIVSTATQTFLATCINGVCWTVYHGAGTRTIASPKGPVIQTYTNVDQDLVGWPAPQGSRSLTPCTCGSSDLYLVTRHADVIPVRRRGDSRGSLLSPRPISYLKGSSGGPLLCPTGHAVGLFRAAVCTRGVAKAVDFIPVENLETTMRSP

`CCC(C=O)NC(=O)c1cc(OCc2ccccc2)ccc1N(C)C(=O)C(NC(=O)C(NC(=O)c1cnccn1)C(C)C)C(C)C` (stereo not shown) [Compound 103]: the Ki (as a rule, the equilibrium dissociation constant of an inhibitor or competing ligand from its target) is 1 to 100 µM.

For `CCC(C=O)NC(=O)c1cc(OCc2ccc(Cl)c(Cl)c2)ccc1NC(=O)C(NC(=O)C(NC(=O)c1cnccn1)C(C)C)C(C)C` (stereo not shown) [Compound 107], the Ki is 1 to 100 µM.

As to `CCC(C=O)NC(=O)c1cc(OCc2ccccc2)ccc1NC(=O)C(NC(=O)c1c(O)ccc2ccccc12)C(C)C` (stereo not shown) [Compound 104], the Ki fell in the range of 1 to 100 µM.

Compound `CCC(C=O)NC(=O)c1cc(OCc2ccccc2)ccc1NC(=O)C(NC(=O)C(NC(=O)c1cnccn1)C(C)C)C(C)C` (stereo not shown) [Compound 101] showed a Ki of 1 to 100 µM.
